# In ChEMBL document CHEMBL1201862, “PubChem BioAssay data set” (2004):
# Calls of active or inactive are those of the source.
# Assays:
# [1] = target: T1, Cytochrome P450 1A2 (Homo sapiens, UniProt P05177);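 note: PubChem cytochrome P450 panel assay, CYP1A2 panel member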
# T1 sequence (P05177 whole entry): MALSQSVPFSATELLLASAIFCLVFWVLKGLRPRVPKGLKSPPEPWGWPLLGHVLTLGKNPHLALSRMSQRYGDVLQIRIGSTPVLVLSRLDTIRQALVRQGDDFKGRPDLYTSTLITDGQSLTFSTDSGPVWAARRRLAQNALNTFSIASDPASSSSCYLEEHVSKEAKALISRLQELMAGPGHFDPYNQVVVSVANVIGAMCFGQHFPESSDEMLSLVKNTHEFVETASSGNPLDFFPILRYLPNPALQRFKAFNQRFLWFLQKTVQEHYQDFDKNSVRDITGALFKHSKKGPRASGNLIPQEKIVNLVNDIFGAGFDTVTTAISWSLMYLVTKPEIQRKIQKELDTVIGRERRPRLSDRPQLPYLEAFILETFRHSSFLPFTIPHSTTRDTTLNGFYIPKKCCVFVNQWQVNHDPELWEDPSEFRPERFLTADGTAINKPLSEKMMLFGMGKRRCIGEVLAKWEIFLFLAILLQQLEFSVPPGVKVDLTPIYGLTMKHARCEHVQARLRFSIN
# [2] = target: Cytochrome P450 2C19 (Homo sapiens, UniProt P33261); experiment: Cytochrome panel assay with activity outcomes. Panel member name: p450-cyp2c19 Compounds with AC50 equal or less than 10 uM are considered active; format: functional
# Cytochrome P450 2C19, sequence (P33261 whole entry): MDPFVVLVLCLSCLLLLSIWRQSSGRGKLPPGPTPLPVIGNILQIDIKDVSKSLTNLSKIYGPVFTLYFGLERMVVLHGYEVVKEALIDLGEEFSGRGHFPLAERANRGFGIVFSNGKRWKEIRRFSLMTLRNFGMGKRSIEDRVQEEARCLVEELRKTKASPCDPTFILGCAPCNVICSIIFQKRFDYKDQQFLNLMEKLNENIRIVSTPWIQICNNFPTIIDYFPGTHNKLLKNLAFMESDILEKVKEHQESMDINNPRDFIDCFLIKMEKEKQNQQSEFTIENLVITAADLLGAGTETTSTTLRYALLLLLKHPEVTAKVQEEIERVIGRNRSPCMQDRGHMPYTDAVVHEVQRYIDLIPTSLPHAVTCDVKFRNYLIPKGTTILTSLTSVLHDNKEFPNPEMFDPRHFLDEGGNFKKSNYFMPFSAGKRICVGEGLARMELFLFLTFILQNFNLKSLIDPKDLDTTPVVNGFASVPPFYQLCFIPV
# [3] = target: Cytochrome P450 2D6 (Homo sapiens, UniProt P10635);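 note: CYP2D6 member of a cytochrome P450 panel assay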
# Cytochrome P450 2D6, sequence (P10635 whole entry): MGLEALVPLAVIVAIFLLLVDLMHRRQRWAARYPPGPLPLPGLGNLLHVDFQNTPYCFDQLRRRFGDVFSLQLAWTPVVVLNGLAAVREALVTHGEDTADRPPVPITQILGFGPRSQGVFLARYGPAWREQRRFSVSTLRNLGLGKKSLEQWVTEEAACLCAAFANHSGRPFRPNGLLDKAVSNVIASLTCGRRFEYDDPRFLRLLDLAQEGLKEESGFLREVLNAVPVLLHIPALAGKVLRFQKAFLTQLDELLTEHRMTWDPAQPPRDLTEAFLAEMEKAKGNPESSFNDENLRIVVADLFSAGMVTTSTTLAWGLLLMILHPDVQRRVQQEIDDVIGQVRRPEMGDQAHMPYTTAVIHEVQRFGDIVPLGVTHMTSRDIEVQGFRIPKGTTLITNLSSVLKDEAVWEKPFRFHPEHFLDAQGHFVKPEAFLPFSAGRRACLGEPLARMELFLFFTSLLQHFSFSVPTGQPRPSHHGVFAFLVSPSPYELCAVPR
# [4] = target: FAD-linked sulfhydryl oxidase ALR (Homo sapiens, UniProt P55789); experiment: inhibitors of human ALR sulfhydryl oxidase, dose response, biochemical, H2O2 detection, luminescence, cherry-pick (AID 493248)
# FAD-linked sulfhydryl oxidase ALR, sequence (P55789 whole entry): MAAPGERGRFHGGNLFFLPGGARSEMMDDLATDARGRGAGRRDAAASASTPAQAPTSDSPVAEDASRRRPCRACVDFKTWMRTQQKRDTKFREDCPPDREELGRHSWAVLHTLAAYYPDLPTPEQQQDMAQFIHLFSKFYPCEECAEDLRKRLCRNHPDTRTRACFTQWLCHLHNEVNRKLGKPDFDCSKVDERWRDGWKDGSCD
# [5] = HEp-2 cell cytotoxicity, dose response, cytotoxicity control for RSV inhibitor project, HTS (AID 2410); format: functional; conditions: human respiratory syncytial virus
# [6] = Luminescence Cell-Based Dose Retest to Confirm Inhibitors of Cancer Stem Cells. [Related pubchem assays (depositor defined):AID2717, AID2721]; format: functional; conditions: Homo sapiens
# [7] = target: Cytochrome P450 2C9 (Homo sapiens, UniProt P11712)
# Cytochrome P450 2C9, sequence (P11712 whole entry): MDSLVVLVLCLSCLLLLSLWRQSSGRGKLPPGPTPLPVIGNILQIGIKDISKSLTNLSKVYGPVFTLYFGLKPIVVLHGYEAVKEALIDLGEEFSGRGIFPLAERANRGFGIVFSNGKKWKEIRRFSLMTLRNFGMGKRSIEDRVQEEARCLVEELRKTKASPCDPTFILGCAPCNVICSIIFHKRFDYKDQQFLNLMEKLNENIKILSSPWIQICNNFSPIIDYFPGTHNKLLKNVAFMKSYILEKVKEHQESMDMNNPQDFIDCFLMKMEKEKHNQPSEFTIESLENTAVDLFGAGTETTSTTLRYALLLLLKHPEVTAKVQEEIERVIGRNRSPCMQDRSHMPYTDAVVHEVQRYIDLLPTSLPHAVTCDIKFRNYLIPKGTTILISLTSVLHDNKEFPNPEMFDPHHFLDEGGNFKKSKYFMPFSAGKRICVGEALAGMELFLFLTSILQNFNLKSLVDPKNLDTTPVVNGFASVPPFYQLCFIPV
# [8] = target: T2, Heat shock factor protein 1 (Mus musculus, UniProt P38532); experiment: inhibition of MG132-induced HSE-luciferase signal, confirmation, cell-based, NIH3T3, luminescence, dose retest (AID 2382); format: functional;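 note: NIH3T3 fibroblasts with HSF1-driven luciferase reporter stressed by proteasome inhibitor MG132; luminescence from HSF1-driven luciferase expression after 8 hours of MG132 stress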
# T2 sequence (P38532 whole entry): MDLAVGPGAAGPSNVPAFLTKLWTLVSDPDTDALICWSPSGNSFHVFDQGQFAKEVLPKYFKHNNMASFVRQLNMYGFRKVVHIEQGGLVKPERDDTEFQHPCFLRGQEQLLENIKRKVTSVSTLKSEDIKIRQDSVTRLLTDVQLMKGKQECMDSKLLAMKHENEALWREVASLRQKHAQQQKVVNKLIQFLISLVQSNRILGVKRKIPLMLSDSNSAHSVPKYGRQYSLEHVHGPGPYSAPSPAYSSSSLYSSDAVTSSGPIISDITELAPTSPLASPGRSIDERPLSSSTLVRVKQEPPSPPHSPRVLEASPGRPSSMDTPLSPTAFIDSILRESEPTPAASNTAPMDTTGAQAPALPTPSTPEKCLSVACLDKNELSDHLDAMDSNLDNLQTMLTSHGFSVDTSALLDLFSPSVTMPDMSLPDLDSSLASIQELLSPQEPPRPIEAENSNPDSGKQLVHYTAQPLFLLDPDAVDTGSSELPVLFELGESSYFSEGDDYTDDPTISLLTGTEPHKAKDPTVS
# [9] = target: T3, Streptokinase A (Streptococcus pyogenes serotype M1, UniProt P10520); experiment: S. pyogenes streptokinase expression inhibitors, potency, dose response, plasminogen activation absorbance, OD405 (AID 1914); format: functional, Streptococcus pyogenes M1 GAS;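 note: secreted streptokinase activity via plasminogen activation per viability signal from cell pellet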
# T3 sequence (P10520 whole entry): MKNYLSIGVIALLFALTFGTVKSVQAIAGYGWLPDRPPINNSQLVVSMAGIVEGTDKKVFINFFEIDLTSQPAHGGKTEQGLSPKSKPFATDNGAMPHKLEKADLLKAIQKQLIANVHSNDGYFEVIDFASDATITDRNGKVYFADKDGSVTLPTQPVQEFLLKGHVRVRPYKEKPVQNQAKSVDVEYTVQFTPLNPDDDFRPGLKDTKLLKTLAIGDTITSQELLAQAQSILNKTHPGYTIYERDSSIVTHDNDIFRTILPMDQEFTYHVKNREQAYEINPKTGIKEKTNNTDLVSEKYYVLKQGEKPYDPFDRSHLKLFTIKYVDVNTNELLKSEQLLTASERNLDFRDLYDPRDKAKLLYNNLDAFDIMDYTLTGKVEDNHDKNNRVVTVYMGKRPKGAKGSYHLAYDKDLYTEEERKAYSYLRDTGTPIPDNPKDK
# [10] = system: Streptococcus sp. 'group A'; experiment: growth inhibition of control SK(-) GAS strain, dose response, counter-screen for streptokinase expression inhibitor project, luminescence, kanamycin, BacTiterGlo, confirmation (AID 1900); format: functional, organism-based
# [11] = system: Streptococcus; experiment: Group A Streptococcus viability loss, dose response, counter-screen for streptokinase expression inhibitor project, luminescence, BacTiterGlo (AID 1915); format: functional, organism-based;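 note: potency for reduction of bacterial viability or growth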
# [12] = target: T4, RNA-binding protein pos-1 (Caenorhabditis elegans, UniProt G5EF15); experiment: inhibitors of POS-1/mex-3 RNA binding, dose response, biochemical, fluorescence polarization (AID 1964);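 note: purified POS-1 fused to maltose binding protein made in E. coli; potency of compounds blocking POS-1 binding to fluorescent RNA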
# T4 sequence (G5EF15 whole entry): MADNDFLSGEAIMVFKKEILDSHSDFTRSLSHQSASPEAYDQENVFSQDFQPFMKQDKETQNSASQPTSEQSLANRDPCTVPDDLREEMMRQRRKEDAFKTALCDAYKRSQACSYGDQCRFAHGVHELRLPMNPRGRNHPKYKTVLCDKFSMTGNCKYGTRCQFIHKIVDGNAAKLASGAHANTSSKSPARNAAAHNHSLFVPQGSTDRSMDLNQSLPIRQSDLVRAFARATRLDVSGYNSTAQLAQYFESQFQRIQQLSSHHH
# [13] = system: H4; experiment: Luminescence Cell-Based Dose Response HTS to Identify Activators of 5'UTR Stem-Loop Driven Prion Protein mRNA Translation in H4 Neuroglioblastoma Cells. [Related pubchem assays: 1829 (Project Summary), 1814 (Primary HTS)]; format: functional; conditions: Homo sapiens
smiles,measurement,setting,value
COc1cccc(NC(=O)COC(=O)c2nc3nccc(C)n3n2)c1,AC50,[1],17.8 µM (inconclusive)
same,AC50,[2]; read-out: AC50,31.6 µM (inconclusive)
same,AC50,[3],22.4 µM (inconclusive)
COc1ccc(CN2C(=O)CN(C3CCCCCC3)C(=O)C2c2ccc(OC)c(OC)c2)cc1 (stereo not given),AC50,[1],35.5 µM (inconclusive)
Cc1ccc(-c2cn3c(n2)SCC3)cc1,AC50,[4],0.513 µM (active)
COc1ccc(C2Nc3ccccc3C(=O)N2Cc2ccco2)cc1COc1ccc([N+](=O)[O-])cc1 (stereo not given),AC50,[3],3.98 µM (inconclusive)
Cc1cc(-c2ccc(Cl)cc2)oc(=O)c1NC(=O)c1ccccc1,AC50,[2]; read-out: AC50,3.55 µM (inconclusive)
O=C1c2ccccc2C(=O)N1CCCCN(C(=O)c1cc([N+](=O)[O-])cc([N+](=O)[O-])c1)c1ccc(Cl)cc1,CC50,[5],> 50 µM (active)
CCCOC(=O)C(=O)NNc1ccccc1,AC50,[6],0.95 µM (active)
CS(=O)(=O)Nc1cccc(-c2nc(NCCN3CCOCC3)c3ccccc3n2)c1,AC50,[1],25.1 µM (inconclusive)
CN=C(S)N1CCN(c2ccc(Cl)c(Cl)c2)CC1,CC50,[5],21.3 µM (active)
CC(CO)(CO)/N=C\c1cc(I)cc(I)c1O,AC50,[7],6.31 µM (inconclusive)
same,AC50,[1],1.58 µM (inconclusive)
N#C/C(=C\c1ccc(N2CCCC2)c([N+](=O)[O-])c1)c1nc2ccccc2[nH]1,AC50,[1],11.2 µM (inconclusive)
CC(NC(=O)c1ccc(N2CCNCC2)c([N+](=O)[O-])c1)C12CC3CC(CC(C3)C1)C2 (stereo not given),CC50,[5],16 µM (active)
same,AC50,[6],10.2 µM (active)
Oc1ccccc1-c1nnc(S)n1Cc1ccco1,AC50,[4],4.75 µM (active)
CN1CCN(c2ncnc3ccc(-c4ccccc4Cl)cc23)CC1,AC50,[3],25.1 µM (inconclusive)
Cc1nc2cc(C(F)(F)F)ccc2n1CCNc1nc(-c2cc(Cl)c(N)c(Cl)c2)cs1,CC50,[5],19.7 µM (active)
CCCNC(=O)N1N=C(c2ccc(N)cc2)c2cc3c(cc2[C@H]1C)OCO3,AC50,[3],25.1 µM (inconclusive)
C=CCc1ccc(OCCOCCOc2cccc3ccc(C)nc23)c(OC)c1,CC50,[5],29.6 µM (active)
CC(C)C(NS(=O)(=O)c1cccc2nsnc12)C(=O)N1CCc2ccccc2C1 (stereo not given),AC50,[7],3.55 µM (inconclusive)
same,AC50,[2]; read-out: AC50,6.31 µM (inconclusive)
COCCCN1C(=O)C(O)=C(C(=O)c2ccc(OC(C)C)c(C)c2)C1c1ccncc1 (stereo not given),AC50,[7],35.5 µM (inconclusive)
same,AC50,[2]; read-out: AC50,11.2 µM (inconclusive)
CN(CC(=O)Nc1ccc(Cl)cc1)CC(=O)Nc1cccc(Br)c1,CC50,[5],16.2 µM (active)
COc1ccc(N2CCN(C(=O)CCNC(=O)c3ccc(C(C)(C)C)cc3)CC2)cc1,AC50,[4],10.1 µM (active)
CC(C)OC(=O)c1cc2c(OC[C@@H](O)CNC(C)(C)C)cccc2[nH]1,AC50,[1],31.6 µM (inconclusive)
same,AC50,[3],15.8 µM (inconclusive)
N=C(N)c1ccc(/N=N\c2c(O)ccc3c2[nH]c2ccccc23)cc1,AC50,[3],5.01 µM (inconclusive)
COc1cccc(Cn2c(=O)c(-c3cc(F)cc(F)c3)nc3cnc(N4CCNCC4)nc32)c1,AC50,[2]; read-out: AC50,39.8 µM (inconclusive)
same,AC50,[3],39.8 µM (inconclusive)
Oc1ccccc1-c1nnc(-c2ccc(C(F)(F)F)cc2)o1,EC50,[8],> 195 µM (not active)
same,AC50,[2]; read-out: AC50,39.8 µM (inconclusive)
CC(C)(C)c1ccc(CN(Cc2ccco2)Cc2nnnn2C2CCCC2)cc1,EC50,[9],12.7 µM (active)
same,EC50,[10],5.71 µM (active)
same,EC50,[11],> 150 µM (not active)
same,AC50,[3],22.4 µM (inconclusive)
CCc1nc(N[C@H](C(=O)O)C(C)CC)c2oc3ccccc3c2n1 (stereo not given in full),AC50,[7],0.00891 µM (inconclusive)
same,AC50,[2],inconclusive
C[C@@H](C(=O)Cc1ccc2ccccc2c1)[C@@H]1C[C@@]1(C)[C@@H](NP(=O)(c1ccccc1)c1ccccc1)c1ccccc1,AC50,[1],10 µM (inconclusive)
COCCn1c(=O)c(-c2cccs2)nc2cnc(N3CCNCC3)nc21,AC50,[2]; read-out: AC50,25.1 µM (inconclusive)
O=[N+]([O-])c1ccc(S(=O)(=O)Nc2cccc(-c3ccc(N4CCOCC4)nn3)c2)cc1,CC50,[5],> 50 µM (active)
O=C(Nc1cccc(C(F)(F)F)c1)C1CCCN1S(=O)(=O)c1cccc2cccnc12 (stereo not given),AC50,[7],5.62 µM (inconclusive)
same,AC50,[1],3.16 µM (inconclusive)
same,AC50,[3],31.6 µM (inconclusive)
CCCCCn1c(=O)c(C(=O)c2ccccc2)nc2ccccc21,AC50,[3],28.2 µM (inconclusive)
Cc1cc(N2CCOCC2)nc2ccc(N=C(S)N3CCCCC3C)cc12 (stereo not given),CC50,[5],18.2 µM (active)
Cc1cc2c(cc1S(=O)(=O)N1CCN(c3ccc(Cl)cc3)CC1)OCCN2C,CC50,[5],41 µM (active)
CCc1nc(N2CCC(C)CC2)c2oc3ccccc3c2n1,AC50,[6],4.63 µM (active)
COc1ccc(CNc2ncncc2-c2c(C)noc2C)c(OC)c1,AC50,[1],25.1 µM (inconclusive)
C1=C(c2sc3ccccc3c2-c2ccc(OCCN3CCOCC3)cc2)CCCC1,AC50,[6],2.71 µM (active)
CCCc1cc(O)nc(SCC(=O)Nc2sc(C(N)=O)c(C)c2C(=O)OCCOC)n1,AC50,[6],3.6 µM (active)
CN(C)CCNC(=O)C(C(=O)c1ccc(F)cc1)n1ccccc1=O (stereo not given),AC50,[1],0.631 µM (inconclusive)
COCCNC(=S)N/N=C(\C)c1ccc(OC(F)F)cc1,CC50,[5],> 50 µM (active)
C(=N\N=C(\Nc1ccccc1)c1ccccn1)/c1ccccn1,EC50,[12],> 300 µM (inconclusive)
C/C(CC(=O)Nc1ccc(Cl)c(C(F)(F)F)c1)=N\NC(=O)c1cc2ccccc2cc1O,AC50,[6],8.61 µM (active)
same,EC50,[9],> 150 µM (not active)
same,EC50,[10],1.57 µM (active)
same,EC50,[11],8.14 µM (active)
Cc1ccc(/C=N/n2c(S)nnc2-c2cccs2)cc1,AC50,[2]; read-out: AC50,3.55 µM (inconclusive)
same,AC50,[3],5.01 µM (inconclusive)
Cc1ccc2nc(C)cc(N/N=C/c3ccccc3O)c2c1,AC50,[4],4.03 µM (active)
CC(/C=N/NC(=O)c1cccc([N+](=O)[O-])c1)=C\c1ccccc1,AC50,[1],1.78 µM (inconclusive)
Cc1nc(N/N=C/c2ccc(O)cc2)c2cnn(-c3ccccc3)c2n1,CC50,[5],42.8 µM (active)
CC1(C)Cc2c(sc(NC(=O)Nc3ccccc3)c2C(N)=O)CO1,EC50,[13],> 120 µM (not active)
O=C(c1ccc(F)cc1)C1CCN(CCn2c(=S)[nH]c3ccccc3c2=O)CC1 [ALTANSERIN],AC50,[7],25.1 µM (inconclusive)
same,AC50,[1],15.8 µM (inconclusive)
same,AC50,[3],10 µM (inconclusive)
CN(C)CC/C=C1\c2ccccc2CSc2ccccc21 [DOTHIEPIN],AC50,[3],7.94 µM (inconclusive)
